In patent US10532053B2, “Histone deacetylase inhibitor, and preparation method and use thereof” (GUANGDONG ZHONGSHENG PHARMACEUTICAL CO., LTD, priority 2015, dated 2020):
Read-outs that look alike come from different tables or passages of the source.

Key:
[1] = target: T1, HDAC1 (Homo sapiens, UniProt Q13547); experiment: HDAC inhibitory activity, fluorescence-coupled acetylated peptide substrate assay (Lys-Ac-AMC); format: biochemical
T1 construct: purchased BPS Bioscience
Method: (§2) The HDAC inhibitory activity was determined by fluorescence-coupled acetylated peptide substrate assay (Lys-Ac-AMC). HDAC1 protein was purchased from BPS Bioscience, and the reaction buffer system was a modified tris(hydroxymethyl)aminomethane buffer (pH 7.0). The small molecule compounds of the present invention were prepared by being dissolved in 100% DMSO. HDAC was prepared in a buffer at a certain concentration as an enzyme solution; trypsin and fluorescent group 4-amino-7-coumarin coupled-acetylated peptide (Ac-peptide) substrate were prepared in a buffer at a certain concentration as a substrate solution. The compounds were added into the reaction wells in a 384-well plate at a designed concentration of 10 μM, 1 μM, 0.5 μM, 0.1 μM, 0.05 μM, 0.01 μM, 0.005 μM, 0.001 μM, and 0.00005 μM, respectively, and then 15 μl of the HDAC solution was added into the reaction wells (15 μl of blank buffer to the control well). […] The results were analyzed by GraphPad Prism software and IC50 values were calculated according to the formula: Y=Background Data+(Top Data−Background Data)/(1+10^((Log IC50−X) a curve slope)), where Y: the inhibition rate (%) and X: the concentration of the compound.

[2] = tested on: B-cell lymphoma Ramos; experiment: Cell proliferative activity (MTT / cck-8); format: cell-based; conditions: Homo sapiens, read-out: Half-Inhibitory Concentration IC50 Ramos
In short: (§1)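 Logarithmic-phase tumor cells were plated at 2000-3000 cells/well in 96-well plates, adherent lines allowed to attach. Proliferation was read by MTT for solid-tumor lines and by CCK-8 for hematologic lines.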

[3] = tested on: Human cervical cancer cell Hela; experiment: Cell proliferative activity (MTT / cck-8); format: cell-based
In short: as §1

[4] = tested on: Human liver cancer cell HepG2; experiment: Cell proliferative activity (MTT / cck-8); format: cell-based
In short: as §1

[5] = tested on: Human lung cancer cell H460; experiment: Cell proliferative activity (MTT / cck-8); format: cell-based
In short: as §1

[6] = tested on: Human melanoma A375; experiment: Cell proliferative activity (MTT / cck-8); format: cell-based; conditions: A-375, incubated for 96 hours, read-out: Half-Inhibitory Concentration IC50 Human melanoma A375
In short: as §1

[7] = tested on: Human ovarian cancer cell SKOV-3; experiment: Cell proliferative activity (MTT / cck-8); format: cell-based
In short: as §1

[8] = tested on: Leukemia K562; experiment: Cell proliferative activity (MTT / cck-8); format: cell-based; conditions: Homo sapiens, read-out: Half-Inhibitory Concentration IC50 K562
In short: as §1

[9] = tested on: Leukemia MV4-11; experiment: Cell proliferative activity (MTT / cck-8); format: cell-based; conditions: Homo sapiens, read-out: Half-Inhibitory Concentration IC50 MV4-11
In short: as §1

[10] = tested on: Multiple myeloma RPMI8226; experiment: Cell proliferative activity (MTT / cck-8); format: cell-based; conditions: Homo sapiens, RPMI-8226, read-out: Half-Inhibitory Concentration IC50 RPMI8226
In short: as §1

[11] = tested on: Multiple myeloma U266; experiment: Cell proliferative activity (MTT / cck-8); format: cell-based; conditions: Homo sapiens, U-266, read-out: Half-Inhibitory Concentration IC50 U266
In short: as §1

[12] = tested on: Colon cancer HCT116; experiment: Cell proliferative activity (MTT / cck-8); format: cell-based; conditions: Homo sapiens, HCT-116, read-out: Half-Inhibitory Concentration IC50 HCT116
[13] = tested on: Ramos cells; experiment: Therapeutic effect on the B-cell lymphoma Ramos subcutaneous tumor model; format: in vivo, NOD/SCID mice; conditions: 6 times; for tumor inhibitory rate: vs solvent group
[14] = tested on: acetylation level of HDAC substrate (Ac-α-tubulin, Ac-H3); experiment: Western blot assay for detecting the level of acetylated proteins; format: cell-based; conditions: HCT116 cells (FIG. 3) or MV4-11 cells (FIG. 4)
Method: The compounds or the positive control compound were added into each group of cells already adherent to the walls (2×10^6 HCT116 cells or 5×10^6 MV4-11 cells) at a designed concentration. After treatment for 4 hours, trypsin was added for digestion, followed by collecting the cells. After washing with cold PBS twice, the cells were lysed by adding RIPA lysis solution (which was purchased from Beyotime, Art. No.: P0013B, adding 1 mM PMSF before use), allowing for lysis on ice for 30 minutes while vortexing at intervals. The lysate was subjected to ultrasonic treatment on an ice bath (ultrasonicated for 3 seconds and repeated 5 times for each group at an interval of 10 seconds). The supernatant was collected by centrifugation at 12,000 g for 20 min at 4° C. and then mixed the SDS-PAGE loading buffer (purchased from Beyotime, Art. No.: P0015F). The mixture was heated in boiling water for 5 minutes to obtain a protein sample. The protein concentration of the sample was quantified by BCA method. 20 […] total protein from each group was subjected to 15% SDS-PAGE electrophoresis, and 5μl of a pre-stained protein marker (purchased from Thermo, Art. No.: 26616) was loaded to an additional selective lane in order to compare protein molecular weights as well as to detect the transmembrane result. When the bromophenol blue bands ran close to the bottom of the gel, the electrophoresis was terminated and the proteins on the gel were transferred to a PVDF membrane at a pore size of 0.22 μm. After 1.5 hours of transmembrane at a constant current of 200 mA, the PVDF membrane was removed and blocked in 5% skimmed milk for 1 hour. After completion of blocking, the membrane was incubated with the primary antibody (Ac-H3 antibody was purchased from Santa Cruz, Art. No.: sc-56616; Ac-α-tubulin antibody was purchased from Santa Cruz, Art. No.: sc-23950) overnight at 4° C. and then washed with TBS/T for 10 minutes for 3 times. The membrane was incubated with the horseradish peroxidase-coupled secondary antibody at room temperature for 1 hour, and then washed with TBS/T for 10 minutes for 3 times. After washing with TBS for 5 minutes, the membrane was exposed and developed by using a film in the darkroom. The detected GAPDH protein was an internal reference protein (GAPDH antibody was purchased from ZSGB-Bio, Art. No.: TA-08).

[15] = target: HDAC3 (Homo sapiens, UniProt O15379); conditions: read-out: IC50 HDAC3; Table 4, Class I
Chain of HDAC3 (O15379 whole entry): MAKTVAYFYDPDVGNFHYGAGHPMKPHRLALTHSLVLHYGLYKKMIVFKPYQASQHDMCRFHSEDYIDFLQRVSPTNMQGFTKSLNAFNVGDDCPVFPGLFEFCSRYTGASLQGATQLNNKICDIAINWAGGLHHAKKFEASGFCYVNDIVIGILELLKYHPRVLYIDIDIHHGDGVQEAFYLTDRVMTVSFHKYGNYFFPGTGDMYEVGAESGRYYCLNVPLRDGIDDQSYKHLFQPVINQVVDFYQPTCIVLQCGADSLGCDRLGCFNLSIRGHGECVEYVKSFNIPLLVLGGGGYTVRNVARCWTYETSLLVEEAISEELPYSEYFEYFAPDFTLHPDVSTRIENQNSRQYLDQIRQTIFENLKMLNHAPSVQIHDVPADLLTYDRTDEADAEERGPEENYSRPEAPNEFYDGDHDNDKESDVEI
Chain of HDAC3 (Q9Y618 395-489 partner limits assumed): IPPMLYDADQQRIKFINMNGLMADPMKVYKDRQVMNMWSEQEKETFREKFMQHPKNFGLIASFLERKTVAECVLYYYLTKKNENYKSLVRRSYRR
Method: The HDAC inhibitory activity was determined by fluorescence-coupled acetylated peptide substrate assay (Lys-Ac-AMC). […] The small molecule compounds of the present invention were prepared by being dissolved in 100% DMSO. HDAC was prepared in a buffer at a certain concentration as an enzyme solution; trypsin and fluorescent group 4-amino-7-coumarin coupled-acetylated peptide (Ac-peptide) substrate were prepared in a buffer at a certain concentration as a substrate solution. The compounds were added into the reaction wells in a 384-well plate at a designed concentration of 10 μM, 1 μM, 0.5 μM, 0.1 μM, 0.05 μM, 0.01 μM, 0.005 μM, 0.001 μM, and 0.00005 μM, respectively, and then 15 μl of the HDAC solution was added into the reaction wells (15 μl of blank buffer to the control well). […] The results were analyzed by GraphPad Prism software and IC50 values were calculated according to the formula: Y=Background Data+(Top Data−Background Data)/(1+10^((Log IC50−X) a curve slope)), where Y: the inhibition rate (%) and X: the concentration of the compound.

[16] = target: HDAC10 (Homo sapiens, UniProt Q969S8); conditions: read-out: IC50 HDAC10; Table 4, Class IIb
Chain of HDAC10 (Q969S8 whole entry): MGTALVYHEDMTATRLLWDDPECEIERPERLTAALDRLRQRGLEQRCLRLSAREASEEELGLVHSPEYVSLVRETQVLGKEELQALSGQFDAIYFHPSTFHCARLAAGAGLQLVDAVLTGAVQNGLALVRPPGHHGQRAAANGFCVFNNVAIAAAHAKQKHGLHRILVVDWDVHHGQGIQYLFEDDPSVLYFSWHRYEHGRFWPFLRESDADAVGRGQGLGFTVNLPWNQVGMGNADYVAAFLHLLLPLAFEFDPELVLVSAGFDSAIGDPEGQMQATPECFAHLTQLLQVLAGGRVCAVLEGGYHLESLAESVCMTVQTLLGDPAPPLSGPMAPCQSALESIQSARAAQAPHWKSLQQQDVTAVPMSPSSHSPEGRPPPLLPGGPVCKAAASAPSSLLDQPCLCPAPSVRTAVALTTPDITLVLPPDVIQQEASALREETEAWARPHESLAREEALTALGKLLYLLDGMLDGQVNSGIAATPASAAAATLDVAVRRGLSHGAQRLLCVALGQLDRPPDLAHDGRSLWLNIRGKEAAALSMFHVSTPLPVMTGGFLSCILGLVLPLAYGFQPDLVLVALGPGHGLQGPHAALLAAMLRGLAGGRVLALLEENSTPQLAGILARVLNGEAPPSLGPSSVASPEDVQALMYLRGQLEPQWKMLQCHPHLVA
Method: as §2

[17] = tested on: HCT116 cells; experiment: Therapeutic effect on the colon cancer HCT116 subcutaneous tumor model (intragastric); conditions: 8 times, vs solvent group

T1 sequence (Q13547 whole entry): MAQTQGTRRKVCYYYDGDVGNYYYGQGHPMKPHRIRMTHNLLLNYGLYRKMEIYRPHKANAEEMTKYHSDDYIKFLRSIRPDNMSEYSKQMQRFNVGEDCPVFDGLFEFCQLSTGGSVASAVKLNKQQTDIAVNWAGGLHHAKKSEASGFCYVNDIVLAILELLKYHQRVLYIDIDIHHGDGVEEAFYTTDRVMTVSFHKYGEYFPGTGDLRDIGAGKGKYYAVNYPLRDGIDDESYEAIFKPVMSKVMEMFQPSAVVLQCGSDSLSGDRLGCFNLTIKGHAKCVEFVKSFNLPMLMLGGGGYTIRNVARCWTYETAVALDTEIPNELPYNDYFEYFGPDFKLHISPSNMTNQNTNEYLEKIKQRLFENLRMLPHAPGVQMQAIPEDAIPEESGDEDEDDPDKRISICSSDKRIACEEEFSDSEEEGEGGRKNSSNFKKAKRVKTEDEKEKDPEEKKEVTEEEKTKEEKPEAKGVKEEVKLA

Compound: COc1ccc(N(C)c2nc(C)nc3ccccc23)cc1OCCCC(=O)NO [III-2, N-hydroxy-4-(2-methoxy-5-(methyl(2-methyl-4-quinazolinyl)amino)phenoxy) butanamide]
- IC50 ([1]; Table 2): 100 to 1000 nM
- IC50 ([1]; Table 4, Class I): 422 ± 1 nM
- IC50 [2]: 71 ± 31 nM
- IC50 ([3]; Cervical cancer, Table 5, read-out: Half-Inhibitory Concentration IC50 Hela): 49 ± 20 nM
- IC50 ([3]; incubated for 96 hours, read-out: Half-Inhibitory Concentration IC50 Human cervical cancer cell Hela): 10 to 100 nM
- IC50 ([4]; Liver cancer, Table 5, read-out: Half-Inhibitory Concentration IC50 HepG2): 41 ± 1 nM
- IC50 ([4]; incubated for 96 hours, read-out: Half-Inhibitory Concentration IC50 Human liver cancer cell HepG2): 10 to 100 nM
- IC50 ([5]; NCI-H460, Lung cancer, Table 5, read-out: Half-Inhibitory Concentration IC50 H460): 55 ± 13 nM
- IC50 ([5]; NCI-H460, incubated for 96 hours, read-out: Half-Inhibitory Concentration IC50 Human lung cancer cell H460): 10 to 100 nM
- IC50 [6]: 10 to 100 nM
- IC50 ([7]; SK-OV-3, Ovarian cancer, Table 5, read-out: Half-Inhibitory Concentration IC50 SKOV-3): 50 ± 8 nM
- IC50 ([7]; SK-OV-3, incubated for 96 hours, read-out: Half-Inhibitory Concentration IC50 Human ovarian cancer cell SKOV-3): 10 to 100 nM
- IC50 [8]: 63 ± 18 nM
- IC50 [9]: 60 ± 32 nM
- IC50 [10]: 15 ± 4 nM
- IC50 [11]: 14 ± 6 nM
- IC50 [12]: 35 ± 21 nM
- tumor inhibitory rate ([13]; 10 mg/kg intragastrically once every other day): no effects on inhibiting tumor growth
- tumor inhibitory rate ([13]; 20 mg/kg intragastrically once every other day): no effects on inhibiting tumor growth
- tumor inhibitory rate ([13]; 40 mg/kg intragastrically once every other day): 22.54%
- toxicity (death of mice during the experiment) ([13]; 80 mg/kg intragastrically once every other day, a mouse died): may exhibit toxicity to a few individuals
- tumor inhibitory rate ([13]; 80 mg/kg intragastrically once every other day): 58.79%
- acetylation of H3 (Ac-H3) [14]: deacetylation of Ac-H3 by the compound III-2 was also demonstrated
- acetylation of α-tubulin [14]: up-regulate the acetylated α-tubulin protease in a dose-dependent manner
- IC50 [15]: 439 ± 9 nM
- IC50 [16]: 1180 ± 168 nM
- tumor inhibitory rate ([17]; 6.25 mg/kg intragastrically once every other day): 51.28%
- tumor inhibitory rate ([17]; 12.5 mg/kg intragastrically once every other day): 58.64%
- tumor inhibitory rate ([17]; 25 mg/kg intragastrically once every other day): 60.37%
- tumor inhibitory rate ([17]; 50 mg/kg intragastrically once every other day): 66.05%
